Earlier results as cited in patent US20020051978A1, “Methods and compositions for the identification, assessment, prevention and therapy of human cancers” (priority 2000, published 2002).
Like-named read-outs stand apart in the source and are kept apart here.

Tested on: 60 cancer cell lines (NCI 60 cancer cell line series)
Details: cited from earlier work

O=C1c2c(O)ccc(O)c2C(=O)c2c(NCCNCCO)ccc(NCCNCCO)c21 [Mitoxantrone]
-Log (GI50) (Breast BT-549 (CL5013)): 7.2
-Log (GI50) (Breast HS-578T CL5006): 7.0
-Log (GI50) (Breast MCF7(I) (CL5001)): 8.4
-Log (GI50) (Breast MCF7/ADRr (CL5002)): 5.4
-Log (GI50) (Breast MDA-MB-231 CL5005): 6.7
-Log (GI50) (Breast MDA-MB-435 (CL5011)): 6.3
-Log (GI50) (Breast MDA-N CL5012): 6.6
-Log (GI50) (Breast T-47D (CL5014)): 7.2
-Log (GI50) (CNS SF-268 CL12014): 7.5
-Log (GI50) (CNS SF-295 CL12015): 7.7
-Log (GI50) (CNS SF-539 CL12016): 7.8
-Log (GI50) (CNS SNB-19 (CL12002)): 7.8
-Log (GI50) (CNS SNB-75(I) CL12005): 7.9
-Log (GI50) (CNS U251(I) CL12009): 8.0
-Log (GI50) (Colon COLO-250 CL4010): 7.0
-Log (GI50) (Colon HCC-2998 (CL4002)): 6.6
-Log (GI50) (Colon HCT-15 CL4015): 6.6
-Log (GI50) (Colon HCT-116 (CL4003)): 7.3
-Log (GI50) (Colon HT29(I) CL4001): 6.6
-Log (GI50) (Colon KM12 (CL4017)): 6.3
-Log (GI50) (Colon SW-620 (CL4009)): 7.3
-Log (GI50) (Leukemia CCRF-CEM(I) (CL7003)): 8.2
-Log (GI50) (Leukemia HL-60(I) (CL7008)): 8.0
-Log (GI50) (Leukemia K562(I) CL7005): 6.9
-Log (GI50) (Leukemia MOLT-4 (CL7006)): 8.3
-Log (GI50) (Leukemia RPMI-8226(I) (CL7010)): 6.7
-Log (GI50) (Leukemia SR CL7019): 8.1
-Log (GI50) (Melanoma LOX IMVI CL10001): 7.7
-Log (GI50) (Melanoma M14 (CL10014)): 6.9
-Log (GI50) (Melanoma MALME-3M CL10002): 6.9
-Log (GI50) (Melanoma SK-MEL-2 (CL10005)): 6.4
-Log (GI50) (Melanoma SK-MEL-5 (CL10007)): 7.3
-Log (GI50) (Melanoma SK-MEL-28 (CL10008)): 6.3
-Log (GI50) (Melanoma UACC-62 (CL10020)): 7.4
-Log (GI50) (Melanoma UACC-257 (CL10021)): 5.7
-Log (GI50) (NCSLC NCI-H522 CL1003): 7.3
-Log (GI50) (NSCLC A549/ATCC (CL1004)): 7.9
-Log (GI50) (NSCLC EKVX (CL1008)): 6.5
-Log (GI50) (NSCLC HOP-62 (CL1026)): 7.9
-Log (GI50) (NSCLC HOP-92 (CL1029)): 7.8
-Log (GI50) (NSCLC NCI-H23(I) CL1001): 7.2
-Log (GI50) (NSCLC NCI-H226 CL1013): 7.8
-Log (GI50) (NSCLC NCI-H332M CL1017): 6.6
-Log (GI50) (NSCLC NCI-H460 CL1021): 8.2
-Log (GI50) (Ovarian IGROV1 CL6010): 6.7
-Log (GI50) (Ovarian OVCAR-3 CL6001): 6.5
-Log (GI50) (Ovarian OVCAR-4 CL6002): 6.5
-Log (GI50) (Ovarian OVCAR-5 CL6003): 6.5
-Log (GI50) (Ovarian OVCAR-8 CL6005): 7.4
-Log (GI50) (Ovarian SK-OV-3 CL6011): 7.4
-Log (GI50) (Prostate DU-145 CL11003): 7.5
-Log (GI50) (Prostate PC-3(I) CL11001): 6.9
-Log (GI50) (Renal 786-O CL9018): 7.7
-Log (GI50) (Renal A498 CL9013): 7.2
-Log (GI50) (Renal ACHN CL9023): 7.9
-Log (GI50) (Renal CAKI-1 CL9015): 8.0
-Log (GI50) (Renal RXF-393 CL9016): 7.2
-Log (GI50) (Renal SN12C CL9008): 8.1
-Log (GI50) (Renal TK10 CL9024): 6.4
-Log (GI50) (Renal UO-31 CL9004): 6.5
